ChEMBL document CHEMBL3885881, “DrugMatrix”

Organism: Rattus norvegicus
Assay: DrugMatrix - Regimen: Daily Repeat
Type: toxicity, organism-based, Sprague-Dawley
Design: regimen Daily Repeat, gender Male, age 6-8 weeks
Conditions: in vivo, po, route oral GAVAGE, vehicle .5 % CMC; for ABSOLUTE BASOPHIL / ABSOLUTE EOSINOPHIL / ABSOLUTE LYMPHOCYTE / ABSOLUTE MONOCYTE / ABSOLUTE SEGMENTED NEUTROPHIL / BASOPHIL / EOSINOPHIL / ERYTHROCYTE COUNT / HEMATOCRIT / HEMOGLOBIN / LEUKOCYTE COUNT / LYMPHOCYTE / MEAN CORPUSCULAR HEMOGLOBIN / MEAN CORPUSCULAR HEMOGLOBIN CONCENTRATION / MEAN CORPUSCULAR VOLUME / MONOCYTE / NEUTROPHIL / NUCLEATED RED BLOOD CELLS / PLATELET COUNT: tissue Blood; for ALANINE AMINOTRANSFERASE / ALBUMIN / ALKALINE PHOSPHATASE / ASPARTATE AMINOTRANSFERASE / BLOOD UREA NITROGEN / CARBON DIOXIDE / CHLORIDE / CHOLESTEROL / CREATINE PHOSPHOKINASE / CREATININE / GLUCOSE / LACTATE DEHYDROGENASE / LIPASE / PHOSPHORUS / POTASSIUM / SODIUM / TOTAL BILIRUBIN / TOTAL PROTEIN / URIC ACID: tissue Plasma
[1] = 0 mg/kg, 72 h, dose level Control, time 3 day
[2] = 0 mg/kg, 120 h, dose level Control, time 5 day
[3] = 200 mg/kg, 72 h, dose level Low, time 3 day

Cc1cnc(C(=O)NCCc2ccc(S(=O)(=O)NC(=O)NC3CCCCC3)cc2)cn1 [GLIPIZIDE]
ABSOLUTE BASOPHIL [1]: 0 CELLS/uL
ABSOLUTE EOSINOPHIL [1]: 0 CELLS/uL
ABSOLUTE LYMPHOCYTE [1]: 12191.17 CELLS/uL
ABSOLUTE MONOCYTE [1]: 183.17 CELLS/uL
ABSOLUTE SEGMENTED NEUTROPHIL [1]: 1192.33 CELLS/uL
BASOPHIL [1]: 0%
EOSINOPHIL [1]: 0%
ERYTHROCYTE COUNT [1]: 5.51 x10E6/uL
HEMATOCRIT [1]: 35.45%
HEMOGLOBIN [1]: 13.82 G/DL
LEUKOCYTE COUNT [1]: 13.57 x10E3/uL
LYMPHOCYTE [1]: 89.83%
MEAN CORPUSCULAR HEMOGLOBIN [1]: 25.1 pg
MEAN CORPUSCULAR HEMOGLOBIN CONCENTRATION [1]: 38.98 G/DL
MEAN CORPUSCULAR VOLUME [1]: 64.42 fL
MONOCYTE [1]: 1.33%
NEUTROPHIL [1]: 8.83%
NUCLEATED RED BLOOD CELLS [1]: 0 /100WBC
PLATELET COUNT [1]: 1118.17 x10E3/uL
ALANINE AMINOTRANSFERASE [1]: 55 u/L
ALBUMIN [1]: 4.15 G/DL
ALKALINE PHOSPHATASE [1]: 449.5 u/L
ASPARTATE AMINOTRANSFERASE [1]: 112.83 u/L
BLOOD UREA NITROGEN [1]: 17.33 mg/dL
CARBON DIOXIDE [1]: 29.5 mmol/L
CHLORIDE [1]: 101 MEQ/L
CHOLESTEROL [1]: 70 mg/dL
CREATINE PHOSPHOKINASE [1]: 1325.83 u/L
CREATININE [1]: 0.18 mg/dL
GLUCOSE [1]: 171.5 mg/dL
LACTATE DEHYDROGENASE [1]: 386 u/L
LIPASE [1]: 10 u/L
PHOSPHORUS [1]: 11.57 mg/dL
POTASSIUM [1]: 6.21 MEQ/L
SODIUM [1]: 141.65 MEQ/L
TOTAL BILIRUBIN [1]: 0.15 mg/dL
TOTAL PROTEIN [1]: 5.75 G/DL
URIC ACID [1]: 1.28 mg/dL
ABSOLUTE BASOPHIL [2]: 0 CELLS/uL
ABSOLUTE EOSINOPHIL [2]: 138.17 CELLS/uL
ABSOLUTE LYMPHOCYTE [2]: 13283.17 CELLS/uL
ABSOLUTE MONOCYTE [2]: 303.83 CELLS/uL
ABSOLUTE SEGMENTED NEUTROPHIL [2]: 1308.17 CELLS/uL
BASOPHIL [2]: 0%
EOSINOPHIL [2]: 1%
ERYTHROCYTE COUNT [2]: 5.32 x10E6/uL
HEMATOCRIT [2]: 33.8%
HEMOGLOBIN [2]: 13.63 G/DL
LEUKOCYTE COUNT [2]: 15.03 x10E3/uL
LYMPHOCYTE [2]: 88.33%
MEAN CORPUSCULAR HEMOGLOBIN [2]: 25.68 pg
MEAN CORPUSCULAR HEMOGLOBIN CONCENTRATION [2]: 40.35 G/DL
MEAN CORPUSCULAR VOLUME [2]: 63.67 fL
MONOCYTE [2]: 1.83%
NEUTROPHIL [2]: 8.83%
NUCLEATED RED BLOOD CELLS [2]: 0 /100WBC
PLATELET COUNT [2]: 1097.5 x10E3/uL
ALANINE AMINOTRANSFERASE [2]: 54.5 u/L
ALBUMIN [2]: 4.27 G/DL
ALKALINE PHOSPHATASE [2]: 337 u/L
ASPARTATE AMINOTRANSFERASE [2]: 94.67 u/L
BLOOD UREA NITROGEN [2]: 17 mg/dL
CARBON DIOXIDE [2]: 28.33 mmol/L
CHLORIDE [2]: 101.5 MEQ/L
CHOLESTEROL [2]: 71.33 mg/dL
CREATINE PHOSPHOKINASE [2]: 628.17 u/L
CREATININE [2]: 0.19 mg/dL
GLUCOSE [2]: 177.83 mg/dL
LACTATE DEHYDROGENASE [2]: 500.5 u/L
LIPASE [2]: 9.5 u/L
PHOSPHORUS [2]: 12.3 mg/dL
POTASSIUM [2]: 5.63 MEQ/L
SODIUM [2]: 143.03 MEQ/L
TOTAL BILIRUBIN [2]: 0.2 mg/dL
TOTAL PROTEIN [2]: 6.02 G/DL
URIC ACID [2]: 1.5 mg/dL
ABSOLUTE BASOPHIL [3]: 0 CELLS/uL
ABSOLUTE EOSINOPHIL [3]: 38 CELLS/uL
ABSOLUTE LYMPHOCYTE [3]: 11413.33 CELLS/uL
ABSOLUTE MONOCYTE [3]: 0 CELLS/uL
ABSOLUTE SEGMENTED NEUTROPHIL [3]: 882 CELLS/uL
BASOPHIL [3]: 0%
EOSINOPHIL [3]: 0.33%
ERYTHROCYTE COUNT [3]: 5.65 x10E6/uL
HEMATOCRIT [3]: 34.83%
HEMOGLOBIN [3]: 13.93 G/DL
LEUKOCYTE COUNT [3]: 12.33 x10E3/uL
LYMPHOCYTE [3]: 92.67%
MEAN CORPUSCULAR HEMOGLOBIN [3]: 24.63 pg
MEAN CORPUSCULAR HEMOGLOBIN CONCENTRATION [3]: 40 G/DL
MEAN CORPUSCULAR VOLUME [3]: 61.63 fL
MONOCYTE [3]: 0%
NEUTROPHIL [3]: 7%
NUCLEATED RED BLOOD CELLS [3]: 0 /100WBC
PLATELET COUNT [3]: 1245 x10E3/uL
ALANINE AMINOTRANSFERASE [3]: 51.33 u/L
ALBUMIN [3]: 4.23 G/DL
ALKALINE PHOSPHATASE [3]: 334.33 u/L
ASPARTATE AMINOTRANSFERASE [3]: 84.33 u/L
BLOOD UREA NITROGEN [3]: 15.33 mg/dL
CARBON DIOXIDE [3]: 27.33 mmol/L
CHLORIDE [3]: 103.33 MEQ/L
CHOLESTEROL [3]: 74.33 mg/dL
CREATINE PHOSPHOKINASE [3]: 335 u/L
CREATININE [3]: 0.13 mg/dL
GLUCOSE [3]: 133.67 mg/dL
LACTATE DEHYDROGENASE [3]: 97.33 u/L
LIPASE [3]: 10.33 u/L
PHOSPHORUS [3]: 11.7 mg/dL
POTASSIUM [3]: 5.79 MEQ/L
SODIUM [3]: 143.47 MEQ/L
TOTAL BILIRUBIN [3]: 0.13 mg/dL
TOTAL PROTEIN [3]: 5.77 G/DL
URIC ACID [3]: 1.43 mg/dL
